Experimental data published in US20240381872A1, “SUBSTITUTED 2,3-DIHYDRO[1,3]THIAZOLO[4,5-B]PYRIDINES, SALTS THEREOF AND THEIR USE AS HERBICIDALLY ACTIVE SUBSTANCES” (BAYER AKTIENGESELLSCHAFT, priority 2021, published 2024).

Experiments:
Type in all cases: in vivo
[1] = system: Poa annua (POAAN); assay: Herbicidal pre-emergence action, section A (Table A7); details: visual grading after ca. 3 weeks vs untreated controls; for pest or weed control at 320 g/ha: Poa annua, pre-emergence, 504 h, read-out: pre-emergence activity against POAAN in %
In short: (§1)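 WP/EC formulations, aqueous, 0.5% additive, 600 l/ha → soil surface over seeds in sandy loam → greenhouse, optimum growth → visual % damage vs untreated at ca. 3 weeks.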

[2] = system: Echinochloa crus-galli (ECHCG); assay: Herbicidal pre-emergence action, section A (Table A3); details: visual grading after ca. 3 weeks vs untreated controls; for pest or weed control at 320 g/ha / pre-emergence activity against ECHCG in %: application rate 320 g/ha
In short: as §1

[3] = system: Zea mays (ZEAMX); assay: Post-emergence effects on crop plants, section F (Table F1); details: for percent crop plant damage (phytotoxicity) on Zea mays, post-emergence at 80 g/ha / percent crop plant damage (phytotoxicity) on Zea mays, post-emergence at 320 g/ha: 504 h, read-out: post-emergence activity against ZEAMX in %; for post-emergence activity against ZEAMX in %: crop plant damage
In short: (§2)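 Post-emergence greenhouse test: crops grown 2 to 3 weeks in sandy loam, sprayed at 320 g/ha or less in 600 l water/ha with 0.5% additive. Injury rated visually as percent relative to controls roughly three weeks later.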

[4] = system: Lolium rigidum (LOLRI); assay: Herbicidal pre-emergence action, section A (Table A5); details: visual grading after ca. 3 weeks vs untreated controls; for pest or weed control at 320 g/ha / pest or weed control at 1280 g/ha: Lolium rigidum, pre-emergence, 504 h, read-out: pre-emergence activity against LOLRI in %
In short: as §1

[5] = system: Polygonum convolvulus (POLCO); assay: Herbicidal post-emergence action, section E (Table E7); details: visual assessment ca. 3 weeks after spraying; for pest or weed control at 80 g/ha: Fallopia convolvulus, 504 h, read-out: post-emergence activity against POLCO in %
In short: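 WP/EC sprayed on single-leaf plants (sandy loam, greenhouse, 2–3 wk post-sowing), 0.5% additive, 600 l/ha water; visual % damage vs untreated at ~3 wk.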

[6] = system: Abutilon theophrasti (ABUTH); assay: Herbicidal post-emergence action, section E (Table E1); details: assessed visually after ca. 3 weeks
From the text: Seeds of mono- and dicotyledonous weed plants and crop plants were sown, in plastic or organic planting pots, in sandy loam, covered with soil and grown in a greenhouse under controlled growth conditions. 2 to 3 weeks after sowing, the test plants were sprayed in the single-leaf stage. The compounds according to the invention, formulated in form of wettable powders (WP) or as emulsifiable concentrates (EC), were sprayed onto the green plant parts as aqueous suspension or emulsion, with the addition of 0.5% of an additive, at an application rate of 600 l of water/ha (converted). The test plants were placed in the greenhouse for ca. 3 weeks under optimum growth conditions, and then the effect of the preparations was assessed visually in comparison with untreated controls (herbicidal effect in percent (%): 100% effect=plants have died off, 0% effect=as control plants).

[7] = system: Poa annua (POAAN); assay: Herbicidal post-emergence action, section B (Table B7); details: visual rating about 3 weeks after treatment vs untreated controls
In short: (§3)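 Visual percent control about 3 weeks post-spray, relative to untreated plants. Application was to foliage at the one-leaf stage (2 to 3 weeks after sowing in sandy loam), using WP or EC formulations in water with 0.5% additive at 600 liters per hectare.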

[8] = system: Lolium rigidum (LOLRI); assay: Herbicidal post-emergence action, section B (Table B5); details: visual rating about 3 weeks after treatment vs untreated controls; for pest or weed control at 1280 g/ha: Lolium rigidum, post-emergence, 504 h, read-out: post-emergence activity against LOLRI in %
In short: as §3

[9] = system: Digitaria sanguinalis (DIGSA); assay: Herbicidal pre-emergence action, section A (Table A12); details: for pre-emergence activity against DIGSA in % / pest or weed control at 320 g/ha: application rate 320 g/ha
In short: as §1

[10] = system: Triticum aestivum (TRZAS); assay: Post-emergence effects on crop plants, section F (Table F2); details: for percent crop plant damage (wheat, post-emergence) at 80 g/ha / post-emergence activity against TRZAS in %: application rate 80 g/ha; for post-emergence activity against TRZAS in %: crop plant damage
In short: as §2

[11] = system: Triticum aestivum (TRZAS); assay: Pre-emergence effects on crop plants, section D (Table D2); details: application rate 80 g/ha; visual grading after ca. 3 weeks
In short: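 Formulated compound (wettable powder or emulsifiable concentrate) was applied pre-emergence to the soil surface at 320 g/ha or lower. Greenhouse-grown plants were rated visually for percent damage after ca. 3 weeks.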

[12] = Echinochloa crus-galli, pre-emergence, 504 h, read-out: pre-emergence activity against ECHCG in %
[13] = Abutilon theophrasti, post-emergence, 504 h, application rate 320 g/ha, read-out: post-emergence activity against ABUTH in %
[14] = Poa annua, post-emergence, 504 h, application rate 1280 g/ha, read-out: post-emergence activity against POAAN in %
[15] = Digitaria sanguinalis, 504 h, read-out: pre-emergence activity against DIGSA in %
[16] = Triticum aestivum, 504 h, read-out: post-emergence activity against TRZAS in %

Cc1cc2c(nc1-c1ccccc1F)NCS2 [Example I-007, 5-(2-fluorophenyl)-6-methyl-2,3-dihydro[1,3]thiazolo[4,5-b]pyridine]
pest or weed control at 320 g/ha ([1]; application rate 320 g/ha): 100% | pest or weed control at 320 g/ha [2, 12]: 100% | percent crop plant damage (phytotoxicity) on Zea mays, post-emergence at 80 g/ha ([3]; application rate 80 g/ha): 0% | pest or weed control at 320 g/ha ([4]; application rate 320 g/ha): 100% | pest or weed control at 80 g/ha ([5]; application rate 80 g/ha): 90% | pest or weed control at 320 g/ha [6, 13]: 80% | pest or weed control at 1280 g/ha [7, 14]: 90%

COC(=O)CCC(=O)N1CSc2cc(C)c(-c3ccccc3F)nc21 [Example I-010]
pre-emergence activity against POAAN in % ([1]; application rate 320 g/ha): 100% | pre-emergence activity against ECHCG in % [2]: 100% | post-emergence activity against LOLRI in % ([8]; application rate 1280 g/ha): 90% | pre-emergence activity against DIGSA in % [9]: 100% | pre-emergence activity against LOLRI in % ([4]; application rate 320 g/ha): 100% | post-emergence activity against POLCO in % ([5]; application rate 320 g/ha): 90% | post-emergence activity against ABUTH in % ([6]; application rate 320 g/ha): 80% | post-emergence activity against POAAN in % ([7]; application rate 1280 g/ha): 90%

CCS(=O)(=O)N1CSc2cc(C)c(-c3ccccc3F)nc21 [Example I-060, 3-(ethylsulfonyl)-5-(2-fluorophenyl)-6-methyl-2,3-dihydro[1,3]thiazolo[4,5-b]pyridine]
pest or weed control at 320 g/ha ([1]; application rate 320 g/ha): 100% | pest or weed control at 1280 g/ha ([2]; Echinochloa crus-galli, pre-emergence, 504 h, application rate 1280 g/ha, read-out: pre-emergence activity against ECHCG in %): 100% | percent crop plant damage (phytotoxicity) on Zea mays, post-emergence at 320 g/ha ([3]; application rate 320 g/ha): 0% | pest or weed control at 1280 g/ha ([8]; application rate 1280 g/ha): 90% | pest or weed control at 320 g/ha [9, 15]: 100% | pest or weed control at 1280 g/ha ([4]; application rate 1280 g/ha): 100% | pest or weed control at 80 g/ha ([5]; application rate 80 g/ha): 90% | percent crop plant damage (wheat, post-emergence) at 80 g/ha [10, 16]: 0% | pest or weed control at 320 g/ha [6, 13]: 80% | pest or weed control at 1280 g/ha [7, 14]: 90%

Cc1cc2c(nc1-c1ccccc1F)N(C(=O)C1(C)CC(Cl)=NO1)CS2 (stereo not drawn) [Example I-083]
pre-emergence activity against POAAN in % ([1]; application rate 1280 g/ha): 100% | pre-emergence activity against ECHCG in % [2]: 100% | post-emergence activity against ZEAMX in % ([3]; application rate 80 g/ha): 10% | post-emergence activity against LOLRI in % ([8]; application rate 1280 g/ha): 90% | pre-emergence activity against DIGSA in % [9]: 100% | pre-emergence activity against LOLRI in % ([4]; application rate 320 g/ha): 100% | post-emergence activity against POLCO in % ([5]; application rate 320 g/ha): 90% | post-emergence activity against ABUTH in % ([6]; application rate 80 g/ha): 90% | post-emergence activity against POAAN in % ([7]; application rate 320 g/ha): 90%

CCOCCS(=O)(=O)N1C[S+]([O-])c2cc(C)c(-c3ccccc3F)nc21 (stereo not drawn) [Example I-127]
pre-emergence activity against TRZAS in % (crop plant damage) [11]: 20% | pest or weed control at 320 g/ha [2, 12]: 100% | percent crop plant damage (phytotoxicity) on Zea mays, post-emergence at 80 g/ha ([3]; application rate 80 g/ha): 20% | pest or weed control at 1280 g/ha ([8]; application rate 1280 g/ha): 90% | pest or weed control at 320 g/ha [9, 15]: 100% | pest or weed control at 320 g/ha ([4]; application rate 320 g/ha): 100% | pest or weed control at 80 g/ha ([5]; application rate 80 g/ha): 90% | percent crop plant damage (wheat, post-emergence) at 80 g/ha [10, 16]: 0% | pest or weed control at 80 g/ha ([6]; Abutilon theophrasti, post-emergence, 504 h, application rate 80 g/ha, read-out: post-emergence activity against ABUTH in %): 80% | pest or weed control at 320 g/ha ([7]; Poa annua, post-emergence, 504 h, application rate 320 g/ha, read-out: post-emergence activity against POAAN in %): 90%

COCC1(C(=O)N2CSc3cc(C)c(-c4ccccc4F)nc32)CC(Cl)=NO1 (stereo not drawn) [Example I-128]
pre-emergence activity against POAAN in % ([1]; application rate 320 g/ha): 100% | pre-emergence activity against ECHCG in % [2]: 100% | post-emergence activity against ZEAMX in % ([3]; application rate 320 g/ha): 0% | post-emergence activity against LOLRI in % ([8]; application rate 320 g/ha): 90% | pre-emergence activity against DIGSA in % [9]: 100% | pre-emergence activity against LOLRI in % ([4]; application rate 320 g/ha): 100% | post-emergence activity against POLCO in % ([5]; application rate 80 g/ha): 90% | post-emergence activity against ABUTH in % ([6]; application rate 80 g/ha): 80% | post-emergence activity against POAAN in % ([7]; application rate 1280 g/ha): 90%

Cc1ccccc1-c1nc2c(cc1C)SCN2C(=O)C1(C)CC(Cl)=NO1 (stereo not drawn) [Example I-137]
pre-emergence activity against TRZAS in % (crop plant damage) [11]: 0% | pre-emergence activity against POAAN in % ([1]; application rate 320 g/ha): 100% | pre-emergence activity against ECHCG in % [2]: 100% | post-emergence activity against ZEAMX in % ([3]; application rate 80 g/ha): 0% | pre-emergence activity against DIGSA in % [9]: 100% | pre-emergence activity against LOLRI in % ([4]; application rate 1280 g/ha): 100% | post-emergence activity against POLCO in % ([5]; application rate 320 g/ha): 80% | post-emergence activity against TRZAS in % [10]: 0% | post-emergence activity against ABUTH in % ([6]; application rate 320 g/ha): 80% | post-emergence activity against POAAN in % ([7]; application rate 320 g/ha): 90%

CC1(C(=O)N2CSc3cc(Br)c(-c4ccccc4)nc32)CC(Cl)=NO1 (stereo not drawn) [Example I-139]
pre-emergence activity against POAAN in % ([1]; application rate 320 g/ha): 100% | pre-emergence activity against ECHCG in % [2]: 100% | post-emergence activity against ZEAMX in % ([3]; application rate 320 g/ha): 0% | pre-emergence activity against DIGSA in % [9]: 100% | pre-emergence activity against LOLRI in % ([4]; application rate 1280 g/ha): 100% | post-emergence activity against POLCO in % ([5]; application rate 320 g/ha): 90% | post-emergence activity against TRZAS in % [10]: 0% | post-emergence activity against ABUTH in % ([6]; application rate 320 g/ha): 90% | post-emergence activity against POAAN in % ([7]; application rate 320 g/ha): 90%

CC1(C(=O)N2CSc3cc(Br)c(-c4ccccc4Cl)nc32)CC(Cl)=NO1 (stereo not drawn) [Example I-141, [6-bromo-5-(2-chlorophenyl)[1,3]thiazolo[4,5-b]pyridin-3(2H)-yl](3-chloro-5-methyl-4,5-dihydro-1,2-oxazol-5-yl)methanone]
pre-emergence activity against TRZAS in % (crop plant damage) [11]: 0% | pest or weed control at 320 g/ha ([1]; application rate 320 g/ha): 100% | pest or weed control at 320 g/ha [2, 12]: 100% | percent crop plant damage (phytotoxicity) on Zea mays, post-emergence at 320 g/ha ([3]; application rate 320 g/ha): 0% | pest or weed control at 1280 g/ha ([9]; Digitaria sanguinalis, 504 h, application rate 1280 g/ha, read-out: pre-emergence activity against DIGSA in %): 100% | pest or weed control at 1280 g/ha ([4]; application rate 1280 g/ha): 100% | percent crop plant damage (wheat, post-emergence) at 320 g/ha ([10]; Triticum aestivum, 504 h, application rate 320 g/ha, read-out: post-emergence activity against TRZAS in %): 0% | pest or weed control at 320 g/ha [6, 13]: 80% | pest or weed control at 1280 g/ha [7, 14]: 90%
